Experimental data from US20250270172A1, “Pyrimidine Derivatives As Modulators of the 5-HT2A Serotonin Receptor Useful For The Treatment of Disorders Related Thereto” (Arena Pharmaceuticals, Inc., priority 2020, published 2025).
pIC50, pKi: −log10 of the molar value. Several values for one entry are separate records, joined by “and”; a condition that tells them apart may be missing. Identical values can stand only once. Like-named read-outs stand apart in the source and are kept apart here.

What was measured:
5-HT2A [1] = target: T1, 5-HT2A (Homo sapiens (Human), UniProt P28223); assay: Radioligand binding assay, [^3H]5-HT competition, 5-HT2A; settings: read-out: 5-HT2A serotonin binding Ki value
T1 sequence (P28223 whole entry): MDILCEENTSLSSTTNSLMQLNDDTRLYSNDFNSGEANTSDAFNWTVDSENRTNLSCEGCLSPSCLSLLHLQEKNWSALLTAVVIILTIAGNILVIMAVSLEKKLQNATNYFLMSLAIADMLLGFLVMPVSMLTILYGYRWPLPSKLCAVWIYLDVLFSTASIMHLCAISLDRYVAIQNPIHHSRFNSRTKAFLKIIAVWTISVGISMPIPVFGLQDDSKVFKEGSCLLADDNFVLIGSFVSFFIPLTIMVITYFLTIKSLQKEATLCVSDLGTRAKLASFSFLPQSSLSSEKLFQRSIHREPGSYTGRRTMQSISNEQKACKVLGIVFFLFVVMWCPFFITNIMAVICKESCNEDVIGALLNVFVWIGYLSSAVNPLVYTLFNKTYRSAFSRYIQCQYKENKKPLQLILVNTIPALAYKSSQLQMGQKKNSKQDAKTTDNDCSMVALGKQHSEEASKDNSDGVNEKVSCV

5-HT2A [2] = target: T1, 5-HT2A; assay: HTRF IP-One antagonist assay, 5-HT2A; type: cell-based; settings: HEK293 cells stably expressing receptor, inositol phosphate accumulation, 80 nM 5-HT in Assay Buffer;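 further: clonal line with low receptor density (about 50–70 fmol/mg), 10-point dose-response from 10 µM in 5-fold steps, HTRF detection after 1 hr, triplicate points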
5-HT2B = 5-HT2B (Homo sapiens (Human), UniProt P41595); assay: HTRF IP-One antagonist assay, 5-HT2B; type: cell-based; settings: HEK293 cells stably expressing receptor, inositol phosphate accumulation, 80 nM 5-HT in Assay Buffer;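 further: clonal HEK293 line with low 5-HT2B expression (estimated 150-200 fmol/mg by radioligand binding), IP-One HTRF readout, 10-point curves from 10 µM in 5-fold steps, triplicate points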
Chain of 5-HT2B (P41595 whole entry): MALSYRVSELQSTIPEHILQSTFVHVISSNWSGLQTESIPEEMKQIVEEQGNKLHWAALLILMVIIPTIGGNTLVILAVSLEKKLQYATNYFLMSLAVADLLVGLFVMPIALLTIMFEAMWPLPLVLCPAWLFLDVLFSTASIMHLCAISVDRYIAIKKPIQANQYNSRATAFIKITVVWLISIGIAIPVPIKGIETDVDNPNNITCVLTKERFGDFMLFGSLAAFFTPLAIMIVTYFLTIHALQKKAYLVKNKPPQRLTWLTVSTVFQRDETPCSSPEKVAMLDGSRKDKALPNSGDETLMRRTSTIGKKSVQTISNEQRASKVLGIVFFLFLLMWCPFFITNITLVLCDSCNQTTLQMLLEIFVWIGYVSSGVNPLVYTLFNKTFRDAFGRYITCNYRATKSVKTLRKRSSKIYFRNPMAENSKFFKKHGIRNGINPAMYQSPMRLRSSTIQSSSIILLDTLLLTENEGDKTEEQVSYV

5-HT2C = 5-HT2C (Homo sapiens (Human), UniProt P28335); assay: HTRF IP-One antagonist assay, 5-HT2C; type: cell-based; settings: HEK293 cells stably expressing receptor, inositol phosphate accumulation, 80 nM 5-HT in Assay Buffer;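 further: clonal HEK293 line with low 5-HT2C density (10–20 fmol/mg), HTRF detection of IP-One, 10-point dose curves from 10 µM in 5-fold steps, triplicate points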
Chain of 5-HT2C (P28335 33-458): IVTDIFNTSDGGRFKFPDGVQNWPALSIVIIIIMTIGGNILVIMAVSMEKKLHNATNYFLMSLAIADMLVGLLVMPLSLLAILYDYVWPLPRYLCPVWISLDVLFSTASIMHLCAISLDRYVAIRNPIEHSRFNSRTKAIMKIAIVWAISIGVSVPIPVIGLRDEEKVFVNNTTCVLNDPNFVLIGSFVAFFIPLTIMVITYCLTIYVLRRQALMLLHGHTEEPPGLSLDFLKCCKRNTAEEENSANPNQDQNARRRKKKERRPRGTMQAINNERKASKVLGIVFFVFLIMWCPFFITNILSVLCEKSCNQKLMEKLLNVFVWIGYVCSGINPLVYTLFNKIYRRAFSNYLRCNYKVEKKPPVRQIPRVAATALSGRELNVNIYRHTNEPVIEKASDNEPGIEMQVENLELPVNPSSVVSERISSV

[3] = [^3H]5-HT radioligand, membranes of HEK293 cells expressing recombinant 5-HT2A, Ki from IC50 by Cheng-Prusoff

pKi (5-HT2A [1])	SMILES	pKi (5-HT2A [1]; [3])	pIC50 (5-HT2A [2])	pIC50 (5-HT2B)	pIC50 (5-HT2C)
–	Cc1ncnc(C)c1-c1cc(NC(=O)Cc2cccc(F)c2)ccc1OCCN1CCCC1 [Compound 275, N-(3-(4,6-dimethylpyrimidin-5-yl)-4-(2-(pyrrolidin-1-yl)ethoxy)phenyl)-2-(3-fluorophenyl)acetamide]	8.77	8.20	4.00	4.00
–	Cc1ncoc1C(=O)Nc1ccc(OCCN2CCCC2)c(-c2c(C)ncnc2C)c1 [Compound 217, N-(3-(4,6-dimethylpyrimidin-5-yl)-4-(2-(pyrrolidin-1-yl)ethoxy)phenyl)-4-methyloxazole-5-carboxamide]	8.14	7.73	4.00	4.00
–	COC1CCN(CCOc2ccc(NC(=O)C3CC3)cc2-c2c(C)ncnc2C)CC1 [Compound 351, N-(3-(4,6-dimethylpyrimidin-5-yl)-4-(2-(4-methoxypiperidin-1-yl)ethoxy)phenyl)cyclopropanecarboxamide]	8.34	8.15	4.00	4.00
–	Cc1ncnc(C)c1-c1cc(NC(=O)c2cccc(C#N)c2)ccc1OCCN1CCC1 [Compound 325, N-(4-(2-(azetidin-1-yl)ethoxy)-3-(4,6-dimethylpyrimidin-5-yl)phenyl)-3-cyanobenzamide]	8.77	8.07	5.54	4.00
–	Cc1ncnc(C)c1-c1cc(NC(=O)Cc2ccn(C)c2)ccc1OCCN1CCCC1 [Compound 268, N-[3-(4,6-dimethylpyrimidin-5-yl)-4-(2-pyrrolidin-1-ylethoxy)phenyl]-2-(1-methylpyrrol-3-yl)acetamide]	8.11	7.20	4.00	4.00
–	Cc1ncnc(C)c1-c1cc(NC(=O)c2ccccc2)ccc1OC1CNC1 [Compound 400, N-(4-(azetidin-3-yloxy)-3-(4,6-dimethylpyrimidin-5-yl)phenyl)benzamide]	8.38	7.41	4.00	4.00
–	Cc1ncnc(C)c1-c1cc(NC(=O)CCc2nccs2)ccc1OCCN1CCCC1 [Compound 256, N-(3-(4,6-dimethylpyrimidin-5-yl)-4-(2-(pyrrolidin-1-yl)ethoxy)phenyl)-3-(thiazol-2-yl)propanamide]	8.00	7.25	4.00	4.00
–	Cc1ncnc(C)c1-c1cc(NC(=O)c2ccccc2)ccc1OCCN1CCC1 [Compound 308, N-(4-(2-(azetidin-1-yl)ethoxy)-3-(4,6-dimethylpyrimidin-5-yl)phenyl)benzamide]	8.48	7.83	4.00	4.00
–	Cc1ncsc1CC(=O)Nc1ccc(OCCN2CCCC2)c(-c2c(C)ncnc2C)c1 [Compound 250, N-(3-(4,6-dimethylpyrimidin-5-yl)-4-(2-(pyrrolidin-1-yl)ethoxy)phenyl)-2-(4-methylthiazol-5-yl)acetamide]	8.04	7.86	4.00	4.00
–	CCC[C@@H](F)C(=O)Nc1ccc(OC[C@H]2CCCCN2)c(-c2c(C)ncnc2C)c1 [Compound 441, (R)—N-[3-(4,6-dimethylpyrimidin-5-yl)-4-[[(2R)-2-piperidyl]methoxy]phenyl]-2-fluoro-pentanamide]	8.25	7.92	–	4.00
–	CCOC1CC1C(=O)Nc1ccc(OC[C@H]2CCCCN2)c(-c2c(C)ncnc2C)c1 (stereo partly drawn) [Compound 447, N-(3-(4,6-dimethylpyrimidin-5-yl)-4-(((R)-piperidin-2-yl)methoxy)phenyl)-2-ethoxycyclopropane-1-carboxamide]	8.15 and 7.71	8.04	4.00	4.00
–	Cc1ncnc(C)c1-c1cc(NC(=O)c2ncsc2C)ccc1OC[C@H]1CCCCN1 [Compound 435, (R)—N-(3-(4,6-dimethylpyrimidin-5-yl)-4-(piperidin-2-ylmethoxy)phenyl)-5-methylthiazole-4-carboxamide]	7.97	7.36	–	4.00
8.23	Cc1ncsc1CC(=O)Nc1ccc(OCCN2CCC2)c(-c2c(C)ncnc2C)c1 [Compound 307, N-(4-(2-(azetidin-1-yl)ethoxy)-3-(4,6-dimethylpyrimidin-5-yl)phenyl)-2-(4-methylthiazol-5-yl)acetamide]	–	8.01	≤ 4.00	4.00
–	COc1cccc(C(=O)Nc2ccc(OCCN3CCCC3)c(-c3c(C)ncnc3C)c2)c1 [Compound 273, N-(3-(4,6-dimethylpyrimidin-5-yl)-4-(2-(pyrrolidin-1-yl)ethoxy)phenyl)-3-methoxybenzamide]	8.95	8.77	–	4.00
–	CCOC1CC1C(=O)Nc1ccc(OCCN2CCCC2)c(-c2c(C)ncnc2C)c1 (centres unmarked) [Compound 291, N-(3-(4,6-dimethylpyrimidin-5-yl)-4-(2-(pyrrolidin-1-yl)ethoxy)phenyl)-2-ethoxycyclopropane-1-carboxamide]	8.30 and 7.81	8.01	4.00	4.00
–	Cc1ncnc(C)c1-c1cc(NC(=O)[C@@H]2C[C@H]2F)ccc1O[C@@H]1CCCNC1 [Compound 409, (1S,2R)—N-(3-(4,6-dimethylpyrimidin-5-yl)-4-(((R)-piperidin-3-yl)oxy)phenyl)-2-fluorocyclopropane-1-carboxamide]	8.18	7.72	5.53	4.00
–	Cc1ncnc(C)c1-c1cc(NC(=O)c2c(F)cnn2C)ccc1OCCN1CCC1 [Compound 316, N-(4-(2-(azetidin-1-yl)ethoxy)-3-(4,6-dimethylpyrimidin-5-yl)phenyl)-4-fluoro-1-methyl-1H-pyrazole-5-carboxamide]	8.30	8.16	5.50	4.00
–	Cc1ncnc(C)c1-c1cc(NC(=O)C2CC2)ccc1OC1CNC1 [Compound 396, N-[4-(azetidin-3-yloxy)-3-(4,6-dimethylpyrimidin-5-yl)phenyl]cyclopropanecarboxamide]	8.23	7.30	4.00	4.00
–	Cc1ncnc(C)c1-c1cc(NC(=O)c2cccn2C)ccc1OC[C@H]1CCCCN1 [Compound 436, (R)—N-(3-(4,6-dimethylpyrimidin-5-yl)-4-(piperidin-2-ylmethoxy)phenyl)-1-methyl-1H-pyrrole-2-carboxamide]	8.22	7.57	–	4.00
–	Cc1ncsc1C(=O)Nc1ccc(OCCN2CCC2)c(-c2c(C)ncnc2C)c1 [Compound 306, N-(4-(2-(azetidin-1-yl)ethoxy)-3-(4,6-dimethylpyrimidin-5-yl)phenyl)-4-methylthiazole-5-carboxamide]	8.58	8.21	–	4.00
–	Cc1ccccc1C(=O)Nc1ccc(OCCN2CCC2)c(-c2c(C)ncnc2C)c1 [Compound 321, N-(4-(2-(azetidin-1-yl)ethoxy)-3-(4,6-dimethylpyrimidin-5-yl)phenyl)-2-methylbenzamide]	–	7.59	5.27	4.00
–	Cc1ncnc(C)c1-c1cc(NC(=O)Cc2cccc(F)c2)ccc1OCCN1CCC1 [Compound 312, N-(4-(2-(azetidin-1-yl)ethoxy)-3-(4,6-dimethylpyrimidin-5-yl)phenyl)-2-(3-fluorophenyl)acetamide]	9.09	8.62	–	4.00
–	Cc1ncnc(C)c1-c1cc(NC(=O)C2(F)CCOCC2)ccc1OC[C@H]1CCCCN1 [Compound 445, (R)—N-(3-(4,6-dimethylpyrimidin-5-yl)-4-(piperidin-2-ylmethoxy)phenyl)-4-fluorotetrahydro-2H-pyran-4-carboxamide]	7.20	–	–	–
–	Cc1ncnc(C)c1-c1cc(NC(=O)C2CC2)ccc1OC[C@@H]1CCCCN1 [Compound 420, N-[3-(4,6-dimethylpyrimidin-5-yl)-4-[[(2S)-2-piperidyl]methoxy]phenyl]cyclopropanecarboxamide]	7.03	–	–	–
–	Cc1ncnc(C)c1-c1cc(NC(=O)c2ccnn2C)ccc1OCCN1CCOCC1 [Compound 394, N-(3-(4,6-dimethylpyrimidin-5-yl)-4-(2-morpholinoethoxy)phenyl)-1-methyl-1H-pyrazole-5-carboxamide]	7.89	–	–	–
–	Cc1ncnc(C)c1-c1cc(NC(=O)C2CCOC2)ccc1OCCN1CCCC1 (centres unmarked) [Compound 231, N-(3-(4,6-dimethylpyrimidin-5-yl)-4-(2-(pyrrolidin-1-yl)ethoxy)phenyl)tetrahydrofuran-3-carboxamide]	7.34	–	–	–
–	Cc1ncnc(C)c1-c1cc(NC(=O)Cc2ccn(C)n2)ccc1OCCN1CCCC1 [Compound 269, N-[3-(4,6-dimethylpyrimidin-5-yl)-4-(2-pyrrolidin-1-ylethoxy)phenyl]-2-(1-methylpyrazol-3-yl)acetamide]	6.25	–	–	–
–	Cc1ncnc(C)c1-c1cc(NC(=O)Cc2ccc(F)cn2)ccc1OCCN1CCCC1 [Compound 278, N-(3-(4,6-dimethylpyrimidin-5-yl)-4-(2-(pyrrolidin-1-yl)ethoxy)phenyl)-2-(5-fluoropyridin-2-yl)acetamide]	7.49	–	–	–
–	Cc1ncnc(C)c1-c1cc(NC(=O)C2CC2)ccc1OCCN1CCC2(CCC(=O)O2)CC1 [Compound 349, N-(3-(4,6-dimethylpyrimidin-5-yl)-4-(2-(2-oxo-1-oxa-8-azaspiro[4.5]decan-8-yl)ethoxy)phenyl)cyclopropanecarboxamide]	7.90	–	–	–
–	Cc1ncnc(C)c1-c1cc(NC(=O)[C@H]2C[C@@H](F)C2)ccc1OCCN1CCCC1 [Compound 302, (1s,3s)-N-(3-(4,6-dimethylpyrimidin-5-yl)-4-(2-(pyrrolidin-1-yl)ethoxy)phenyl)-3-fluorocyclobutane-1-carboxamide]	8.50	–	–	–
